From patent publication US20100286056A1, “COMPOSITIONS FOR REDUCING OXIDATIVE STRESS AND USES THEREOF” (priority 2007, published 2010)

Legend:
human dermal fibroblasts = test: UVA-induced intracellular amplification of ROS (dihydrorhodamine 123, flow cytometry); type: cell-based
Procedure: The modulating effect of the tripeptides […]) and Thyrotropin Releasing Hormones (TRH, Protirelin, Thyoliberin, […]) was examined on human dermal fibroblasts that were seeded into 3.5 cm^2 tissue culture dishes in a density of 150,000 per dish in […] medium. Two days after seeding the cells, the medium supplemented with 10% foetal calf serum, 1% L-glutamine and 1% penicillin/streptomycin was exchanged with serum-free RPMI medium and pre-incubated for 24 hours with KPV, […] Subsequently, the cells were exposed to a physiological dose of UVA radiation (10 J/cm^2). Immediately after radiation, the cells were incubated with 5 μM dihydrorhodamine 123 plus 5 mM glucose in phosphate buffer (PBS) for 30 minutes. Subsequently, the cells were trypsinized, resuspended in PBS with 5 mM glucose and analyzed by means of flow cytometry (FACS, FACSCalibur with 488 nm argon laser). The above dihydrorhodamine probe is oxidized in the presence of intracellular ROS into green fluorescent […] and, thus, can be measured fluorometrically. A total of 10×10^3 cells per probe were analyzed and evaluated using CELL-QUEST software. The median of the FL-1 channel was used as parameter for the intracellular ROS amount, since it represents the maximum number of cells with the highest fluorescence. […]

B16.F1 melanoma cells = test: Extracellular melanin accumulation (optical density 405 nm); type: cell-based, mouse; settings: peptides at 10^-6, 10^-8 and 10^-10 M; NDP-α-MSH 10^-8 M; 72 hrs (FIG. 3)
Excerpt: It is also preferred that the compounds of the invention have no or merely a negligible melanotropic effect. “Melanotropic effect” means that the compound induces the extracellular melanin accumulation in a cell assay in accordance with the method described in the appended example 2 and/or in accordance with the method described in Siegrist and Eberle (Anal. Biochem. 1986; 159; 191-197), title “In situ melanin assay for MSH using mouse B16 melanoma cells in culture”. “No or negligible” means that the mean melanin accumulation which is induced by the compounds of the invention exceeds the mean melanin accumulation which is induced by at least one of the two compounds as exemplified in Example 2 by not more than about 40%, 30%, 20%, 15%, 10%, 5%, 2.5%, 2% or 1%, preferably under conditions which equate to or are identical with those set out in Example 2. The skilled person is able to justify which assay conditions/assays equate with the assay/conditions exemplified in the appended examples. The melanin accumulation evaluated in Example 2 is depicted in FIG. 3. The effect of the compounds of the invention on extracellular melanin accumulation is thus determinable by the methods disclosed herein. […]

Compound | UVA-induced intracellular amplification of ROS (oxidative stress) (human dermal fibroblasts; 10^-8 M peptide, 24 h pre-incubation, UVA 10 J/cm^2, significant, p<0.001 (FIG. 1)) | effect on UVA-induced intracellular amplification of ROS compared to vitamin C (ascorbate) (human dermal fibroblasts; peptide 10^-8M vs vitamin C at 10^-2M as printed (FIG. 2)) | melanotropic effect (extracellular melanin accumulation) (B16.F1 melanoma cells)
NC(=O)[C@@H]1CCCN1C(=O)[C@H](Cc1c[nH]cn1)NC(=O)[C@@H]1CCC(=O)N1 [TRH, L-Pyroglutamyl-L-histidyl-L-prolinamid] | suppressed | comparable with that of vitamin C | –
NDP-α-MSH | – | – | p<0.001 vs. control
